Among the test systems are DU-145 prostate; M14 melanoma; MDA-MB-231 breast; MOLT-4 leukemia; NCI-H522 lung; OVCAR-5 ovarian; RPMI-8226 leukemia; RXF 393 renal; SR leukemia; UO-31 renal.
Common to all, as to assay: DTP human tumour cell line panel, 48 h

Structures are written as SMILES. Several values for one entry are separate records, joined by “and”; a condition that tells them apart may be missing. Identical values can stand only once.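 A five-concentration, 48-hour dose response in 96-well plates underlies each endpoint, interpolated linearly between surrounding concentrations. At the GI50, growth is halved. TGI denotes the concentration required for complete inhibition of growth.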

`CC(C)C[C@H](NC(=O)[C@@H](O)[C@H](N)Cc1ccccc1)C(=O)O`: the TGI with DU-145 prostate, in the test with M14 melanoma, with MDA-MB-231 breast, in the test with MOLT-4 leukemia, with NCI-H522 lung and with OVCAR-5 ovarian was more than 100 µM in each case. The TGI with RPMI-8226 leukemia, with RXF 393 renal, in the test on SR leukemia and with UO-31 renal was more than 100 µM each time. Besides, the GI50 with NCI-H522 lung and with UO-31 renal was more than 100 µM throughout.
Take `CC1(C)CC2(C)OC2C2(C1)N=NC(=Nc1ccccc1)O2` (stereo not drawn): the GI50 (as a rule, the concentration giving 50% growth inhibition) in the test on DU-145 prostate was 4.78 µM; in the test with M14 melanoma, 5.15 µM; in the test with MDA-MB-231 breast, 2.61 µM; with MOLT-4 leukemia, 2.63 µM; in the test with NCI-H522 lung, 1.61 µM; with OVCAR-5 ovarian, 11.2 µM. For the same molecule, the GI50 is 2.41 µM in the test with RPMI-8226 leukemia, 2.19 µM with RXF 393 renal, 2.56 µM in the test on SR leukemia and 1.67 µM with UO-31 renal. The TGI (usually the concentration giving total growth inhibition) with DU-145 prostate amounted to 18.7 µM; in the test with M14 melanoma, 19.2 µM; in the test on MDA-MB-231 breast it was 7.75 µM; in the test on MOLT-4 leukemia, 9.96 µM; with NCI-H522 lung it was 3.33 µM; in the test on OVCAR-5 ovarian, 26.2 µM. For the same molecule, the TGI in the test on RPMI-8226 leukemia worked out at 6.82 µM; in the test with RXF 393 renal, 6.26 µM; in the test on SR leukemia, 8.68 µM; with UO-31 renal it was 4.02 µM.
On to `CN1CC(C(=O)NC2(C)OC3(O)C4CCCN4C(=O)C(Cc4ccccc4)N3C2=O)C=C2c3cccc4[nH]cc(c34)CC21` (stereo not drawn), for which the TGI was 67.8 µM in the test on DU-145 prostate; 81.4 µM in the test on M14 melanoma; 45.5 µM with MDA-MB-231 breast; more than 100 µM with MOLT-4 leukemia; 33.3 µM in the test with NCI-H522 lung; 44.9 µM with OVCAR-5 ovarian. The TGI with RPMI-8226 leukemia is more than 100 µM; in the test on RXF 393 renal, 40.5 µM; in the test with SR leukemia it was 60.7 µM; in the test on UO-31 renal it was 77.9 µM.
As for `CN1C(=O)C23CC4=CC=CC(O)C4N2C(=O)C1(CO)SS3` (stereo not drawn), the TGI turned out to be 0.318 µM in the test on DU-145 prostate; 0.295 µM in the test with M14 melanoma; 0.373 µM in the test on MDA-MB-231 breast; 0.447 µM in the test with MOLT-4 leukemia; 0.338 µM with NCI-H522 lung; 0.149 µM with OVCAR-5 ovarian. Moreover, the TGI in the test on RPMI-8226 leukemia was determined as 0.591 µM; in the test with RXF 393 renal, 0.38 µM; in the test with SR leukemia it was 0.0996 µM; in the test with UO-31 renal, 2.03 µM.
For `OCCCCC#Cc1ccccc1C#Cc1cnccn1`, the GI50 in the test on DU-145 prostate was 13.8 µM; in the test on MDA-MB-231 breast it was 18 µM; in the test with MOLT-4 leukemia it was 29.8 µM; with NCI-H522 lung, 24.5 µM; in the test on OVCAR-5 ovarian, 47.7 µM; with RPMI-8226 leukemia, 26.7 µM. The GI50 was 15 µM with RXF 393 renal, 28.1 µM with SR leukemia and 27 µM with UO-31 renal. The TGI with DU-145 prostate is more than 100 µM; with MDA-MB-231 breast, 54.9 µM; in the test on MOLT-4 leukemia, more than 100 µM; with NCI-H522 lung it was 63.7 µM; with OVCAR-5 ovarian it was more than 100 µM; in the test with RPMI-8226 leukemia, more than 100 µM. In addition, the values for the TGI in the test on RXF 393 renal, in the test on SR leukemia and in the test with UO-31 renal were 54.2 µM, more than 100 µM and more than 100 µM, respectively.
`COc1cc(C2c3cc4c(cc3[C@@H](Nc3cccc(O)c3)C3COC(=O)[C@H]23)OCO4)cc(OC)c1O` (stereo partly drawn): the TGI in the test on DU-145 prostate is 1.75 µM; with M14 melanoma, 14.1 µM; with MDA-MB-231 breast, 24.2 µM; in the test on MOLT-4 leukemia it was 0.911 µM; in the test on NCI-H522 lung, 5.51 µM; in the test on OVCAR-5 ovarian, 22.7 µM. Further, the TGI in the test with RPMI-8226 leukemia is 9.31 µM; in the test with RXF 393 renal, 9.23 µM; in the test on SR leukemia, 0.816 µM and 4.6 µM; in the test on UO-31 renal it was 7.4 µM. In addition, the GI50 in the test on M14 melanoma is 0.991 µM; in the test with MOLT-4 leukemia, 0.1 µM; in the test on NCI-H522 lung, 0.571 µM; in the test on RPMI-8226 leukemia, 0.45 µM; in the test on RXF 393 renal, 0.418 µM; with SR leukemia it was 0.0674 µM. Also, the GI50 in the test with UO-31 renal is 0.779 µM.
As to `C=C(C)[C@]12CC(C)C34OC(/C=C\C=C\CCCCCCCCC)(O[C@@H]1[C@@H]3[C@@H]1O[C@]1(CO)[C@@H](O)[C@]1(O)C(=O)C(C)=C[C@@H]41)O2` (stereo partly drawn), the TGI with DU-145 prostate amounted to 22.1 µM; in the test with M14 melanoma it was 27.4 µM; in the test with MDA-MB-231 breast, 15.4 µM; in the test on NCI-H522 lung, 30.7 µM; with OVCAR-5 ovarian, 41.2 µM; in the test on RPMI-8226 leukemia, 17 µM. Also, the TGI came out at 28.6 µM with RXF 393 renal, 15.8 µM in the test with SR leukemia and 24.8 µM in the test on UO-31 renal.
With `CC(=O)N[C@@H]1CCC[C@H](C(=O)Nc2cc(-c3cnn4c3CC(C)(C)C4)c(Cl)cn2)C1`, the concentration for 50% growth inhibition (GI50) in the test with DU-145 prostate is 0.0102 µM; in the test on MDA-MB-231 breast it was less than 0.0133 µM; in the test on MOLT-4 leukemia it was less than 0.0117 µM; in the test with NCI-H522 lung it was 0.013 µM; in the test on OVCAR-5 ovarian it was less than 0.01 µM; with RPMI-8226 leukemia, 0.0158 µM. In addition, the GI50 is less than 0.01 µM in the test with RXF 393 renal, less than 0.01 µM in the test on SR leukemia and 0.0241 µM in the test with UO-31 renal. Besides, the TGI in the test with DU-145 prostate is more than 100 µM; in the test with MDA-MB-231 breast, more than 100 µM; in the test with MOLT-4 leukemia, 0.13 µM; in the test with NCI-H522 lung, 0.0588 µM; with OVCAR-5 ovarian, more than 100 µM; in the test with RPMI-8226 leukemia, 0.0703 µM. The figures for the TGI in the test on RXF 393 renal and in the test on SR leukemia were less than 0.01 µM and 1.21 µM, respectively.
For the molecule `COc1ccc(N=C2NN=C(c3c[nH]c4ccccc34)CS2)cc1OC`, the GI50 in the test with DU-145 prostate was 19.5 µM; in the test with M14 melanoma it was 4.49 µM; with MDA-MB-231 breast it was 8.73 µM; in the test on MOLT-4 leukemia, 3.29 µM; in the test with NCI-H522 lung, 7.17 µM; in the test on OVCAR-5 ovarian, more than 70.6 µM. The GI50 with RPMI-8226 leukemia is 3.66 µM; in the test on RXF 393 renal, 6.19 µM; in the test with SR leukemia, 0.181 µM; with UO-31 renal, 5.81 µM. In addition, the TGI in the test on DU-145 prostate is more than 87.7 µM; in the test on M14 melanoma, more than 100 µM; in the test on MDA-MB-231 breast it was more than 100 µM; in the test with MOLT-4 leukemia, more than 100 µM; with NCI-H522 lung it was more than 100 µM; with OVCAR-5 ovarian, more than 100 µM. For the same molecule, the TGI in the test on RPMI-8226 leukemia is more than 29.6 µM; with RXF 393 renal, more than 25.7 µM; in the test with SR leukemia, more than 100 µM; with UO-31 renal, more than 100 µM.

The values above are taken from PubChem BioAssay (NCI).
